For data set [1], the target named is T1, Epidermal growth factor receptor (Homo sapiens, UniProt P00533, L858R/T790M). Format: protein assay.
For data set [2], the species on record is Homo sapiens. The data set is described as follows: Selectivity index, ratio of IC50 for wild type EGFR (unknown origin) to IC50 for EGFR L858R/T790M mutant (unknown origin).
In data set [3] the target is T2, Epidermal growth factor receptor (Homo sapiens, UniProt P00533). The data set is described as follows: Inhibiton of wild type EGFR (unknown origin) using Poly (Glu4Tyr1) as substrate incubated for 1 hr by ELISA. Format: single protein. A general note: An ELISA detects its analyte on a solid surface through an enzyme-linked reagent.
T2 sequence (P00533 whole entry): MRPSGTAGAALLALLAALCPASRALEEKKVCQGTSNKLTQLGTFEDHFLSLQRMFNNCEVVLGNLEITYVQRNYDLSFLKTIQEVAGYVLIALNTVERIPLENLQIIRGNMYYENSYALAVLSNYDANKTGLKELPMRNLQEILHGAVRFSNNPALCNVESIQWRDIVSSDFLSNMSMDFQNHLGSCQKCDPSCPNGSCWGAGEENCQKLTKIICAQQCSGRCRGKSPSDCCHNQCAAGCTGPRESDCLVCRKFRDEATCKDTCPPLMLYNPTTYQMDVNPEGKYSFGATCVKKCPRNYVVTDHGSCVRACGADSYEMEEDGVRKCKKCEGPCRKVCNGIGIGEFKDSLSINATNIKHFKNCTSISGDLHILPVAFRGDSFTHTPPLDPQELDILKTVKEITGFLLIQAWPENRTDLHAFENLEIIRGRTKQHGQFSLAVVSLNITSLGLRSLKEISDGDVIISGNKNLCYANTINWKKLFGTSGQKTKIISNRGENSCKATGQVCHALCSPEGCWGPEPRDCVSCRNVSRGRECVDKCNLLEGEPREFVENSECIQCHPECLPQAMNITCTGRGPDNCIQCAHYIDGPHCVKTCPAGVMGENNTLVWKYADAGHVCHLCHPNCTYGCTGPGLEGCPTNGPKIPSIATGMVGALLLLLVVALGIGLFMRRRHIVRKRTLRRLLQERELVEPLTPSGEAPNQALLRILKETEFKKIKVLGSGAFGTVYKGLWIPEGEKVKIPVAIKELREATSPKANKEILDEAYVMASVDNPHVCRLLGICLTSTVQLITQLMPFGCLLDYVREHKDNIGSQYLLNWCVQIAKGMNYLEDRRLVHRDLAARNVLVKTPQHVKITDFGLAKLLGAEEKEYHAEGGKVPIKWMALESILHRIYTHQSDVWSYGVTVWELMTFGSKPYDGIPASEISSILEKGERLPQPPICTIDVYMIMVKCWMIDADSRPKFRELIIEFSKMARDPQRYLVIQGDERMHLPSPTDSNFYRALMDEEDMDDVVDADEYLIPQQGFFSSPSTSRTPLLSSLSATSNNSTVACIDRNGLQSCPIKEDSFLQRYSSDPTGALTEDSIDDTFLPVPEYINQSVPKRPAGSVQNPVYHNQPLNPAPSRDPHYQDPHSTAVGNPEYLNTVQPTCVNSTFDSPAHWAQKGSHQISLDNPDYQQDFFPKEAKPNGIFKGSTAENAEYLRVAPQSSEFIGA
In data set [4] the target is T2, Epidermal growth factor receptor.
Data set [5] addresses T1, Epidermal growth factor receptor.
The species entered for data set [6] is Homo sapiens. The data set is described as follows: Selectivity ratio of Kd for wild type human EGFR to Kd for human EGFR L858R/T790M mutant.
The test system of data set [7] is Epidermal growth factor receptor (Homo sapiens), P00533 [T790M]. Particulars: H1975, 0.3 to 30 nM.
Epidermal growth factor receptor (Homo sapiens), P00533 [T790M], sequence (P00533 whole entry T790M): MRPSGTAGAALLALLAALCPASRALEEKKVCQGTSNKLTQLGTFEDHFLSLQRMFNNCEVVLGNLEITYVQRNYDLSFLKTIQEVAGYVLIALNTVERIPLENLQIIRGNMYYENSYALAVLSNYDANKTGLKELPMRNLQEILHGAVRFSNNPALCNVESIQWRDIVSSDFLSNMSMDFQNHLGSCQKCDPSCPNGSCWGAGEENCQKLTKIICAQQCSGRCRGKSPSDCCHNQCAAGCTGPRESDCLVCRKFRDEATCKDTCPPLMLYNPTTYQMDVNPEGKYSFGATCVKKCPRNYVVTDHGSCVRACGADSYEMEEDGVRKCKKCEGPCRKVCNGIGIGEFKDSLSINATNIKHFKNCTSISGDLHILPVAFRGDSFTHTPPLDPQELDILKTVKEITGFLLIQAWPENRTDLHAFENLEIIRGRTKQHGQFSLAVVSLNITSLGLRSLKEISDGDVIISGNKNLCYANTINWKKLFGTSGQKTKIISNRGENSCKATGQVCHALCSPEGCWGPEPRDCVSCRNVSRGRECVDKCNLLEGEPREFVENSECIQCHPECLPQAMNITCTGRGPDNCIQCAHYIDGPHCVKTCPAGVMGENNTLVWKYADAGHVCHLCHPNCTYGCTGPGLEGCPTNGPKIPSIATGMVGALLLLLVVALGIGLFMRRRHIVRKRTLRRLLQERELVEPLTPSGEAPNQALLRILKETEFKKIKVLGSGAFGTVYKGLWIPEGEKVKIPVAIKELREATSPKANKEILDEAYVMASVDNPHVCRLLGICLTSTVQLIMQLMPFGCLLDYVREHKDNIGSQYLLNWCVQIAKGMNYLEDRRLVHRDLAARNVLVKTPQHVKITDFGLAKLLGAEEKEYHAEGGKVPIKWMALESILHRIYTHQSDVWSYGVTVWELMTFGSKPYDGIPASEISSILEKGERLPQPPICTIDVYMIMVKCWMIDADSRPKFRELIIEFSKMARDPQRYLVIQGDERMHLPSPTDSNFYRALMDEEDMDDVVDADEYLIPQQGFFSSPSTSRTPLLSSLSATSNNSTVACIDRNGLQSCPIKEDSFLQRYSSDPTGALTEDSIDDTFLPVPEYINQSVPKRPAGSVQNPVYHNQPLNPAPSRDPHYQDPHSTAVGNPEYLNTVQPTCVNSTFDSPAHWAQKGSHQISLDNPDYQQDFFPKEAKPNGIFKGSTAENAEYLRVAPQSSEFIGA
The test system is the same in data set [8]. The following applies: H1975, 0.3 to 30 nM. This is another data set of the same source.
The test system is the same in data set [9]. The following applies: H1975, 0.3 to 30 nM. The source holds these as a separate data set.
Data set [10] relates to NCI-H1975. The data set is described as follows: Effect on total EGFR T790M mutant level in EGF-stimulated human NCI-H1975 cells preincubated for 2 hrs followed by EGF stimulation measured after 15 mins by Western blot analysis. In kind it is ADME, cell-based. The following applies: nci-h1975, 0.25 h.
Data set [11] concerns NCI-H1975. Kind of data set: Effect on total ERK level in EGF-stimulated human NCI-H1975 cells expressing EGFR T790M mutant preincubated for 2 hrs followed by EGF stimulation measured after 15 mins by Western blot analysis. In kind it is ADME, cell-based. The following applies: nci-h1975, 0.25 h. (In general: Immunoblotting shows a protein as a band on a membrane.)
Data set [12] deals with NCI-H1975. The data set is described as follows: Effect on total AKT level in EGF-stimulated human NCI-H1975 cells expressing EGFR T790M mutant preincubated for 2 hrs followed by EGF stimulation measured after 15 mins by Western blot analysis. In kind it is ADME, cell-based. The following applies: nci-h1975, 0.25 h.
Data set [13] concerns NCI-H1975. Kind of data set: Selectivity index, ratio of IC50 for human WI38 cells to IC50 for human NCI-H1975 cells harboring EGFR L858R/T790M mutant.
Data set [14] deals with NCI-H1975. Kind of data set: Selectivity index, ratio of IC50 for human LO2 cells to IC50 for human NCI-H1975 cells harboring EGFR L858R/T790M mutant.
Data set [15] deals with Epidermal growth factor receptor (Homo sapiens), P00533 [L858R,T790M]. Particulars: 100 nM.
Epidermal growth factor receptor (Homo sapiens), P00533 [L858R,T790M], sequence (P00533 whole entry T790M/L858R, looked up): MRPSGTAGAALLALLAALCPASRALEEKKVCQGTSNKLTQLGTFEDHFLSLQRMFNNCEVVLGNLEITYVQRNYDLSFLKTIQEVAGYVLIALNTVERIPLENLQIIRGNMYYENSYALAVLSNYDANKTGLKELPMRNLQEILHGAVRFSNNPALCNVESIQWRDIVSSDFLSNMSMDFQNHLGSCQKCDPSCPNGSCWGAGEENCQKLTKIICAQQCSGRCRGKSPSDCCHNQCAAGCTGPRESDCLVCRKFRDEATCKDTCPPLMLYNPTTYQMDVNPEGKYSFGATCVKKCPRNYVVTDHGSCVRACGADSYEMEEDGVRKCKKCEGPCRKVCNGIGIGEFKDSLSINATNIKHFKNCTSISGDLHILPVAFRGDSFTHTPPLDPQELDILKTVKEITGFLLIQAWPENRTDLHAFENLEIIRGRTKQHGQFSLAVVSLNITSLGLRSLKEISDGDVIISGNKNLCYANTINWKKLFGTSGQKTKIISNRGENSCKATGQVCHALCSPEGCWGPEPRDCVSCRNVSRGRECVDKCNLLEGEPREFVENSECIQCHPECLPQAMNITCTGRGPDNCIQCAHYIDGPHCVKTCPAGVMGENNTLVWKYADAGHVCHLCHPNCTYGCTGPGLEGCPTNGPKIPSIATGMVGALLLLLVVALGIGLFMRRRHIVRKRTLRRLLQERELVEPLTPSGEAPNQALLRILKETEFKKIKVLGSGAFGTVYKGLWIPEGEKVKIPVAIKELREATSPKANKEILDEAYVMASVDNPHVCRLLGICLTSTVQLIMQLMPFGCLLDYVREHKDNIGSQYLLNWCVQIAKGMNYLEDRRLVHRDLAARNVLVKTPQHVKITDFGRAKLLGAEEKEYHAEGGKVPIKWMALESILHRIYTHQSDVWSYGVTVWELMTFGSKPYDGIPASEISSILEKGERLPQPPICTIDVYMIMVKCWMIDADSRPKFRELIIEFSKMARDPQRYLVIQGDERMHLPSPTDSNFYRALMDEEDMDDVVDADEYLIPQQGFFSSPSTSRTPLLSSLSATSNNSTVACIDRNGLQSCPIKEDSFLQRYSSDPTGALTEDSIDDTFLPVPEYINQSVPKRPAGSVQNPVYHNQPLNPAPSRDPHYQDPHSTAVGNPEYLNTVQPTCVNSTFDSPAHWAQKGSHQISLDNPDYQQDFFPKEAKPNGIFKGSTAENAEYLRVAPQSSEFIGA
Another data set concerns A-431. The data set is described as follows: Cytotoxicity against human A431 cells overexpressing wild type EGFR after 72 hrs by SRB assay. In kind it is cell-based. The following applies: A-431, 72 h. Background: The SRB assay estimates cell density from bound dye.
The subject of data set [16] is NCI-H1975. The data set is described as follows: Cytotoxicity against human NCI-H1975 harboring EGFR L858R/T790M mutant after 72 hrs by SRB assay. Format: functional, cell-based. Particulars: NCI-H1975, 72 h.
Data set [17] concerns the target T2, Epidermal growth factor receptor. Kind of data set: Inhibition of EGF-stimulated wild type EGFR phosphorylation in human A431 cells assessed as suppression of AKT phosphorylation at 100 nM preincubated for 2 hrs followed by EGF stimulation measured after 15 mins by Western blot analysis. In kind it is cell-based. The following applies: a-431, 0.25 h, 0.1 µM.

Data set [18] has the same target. Kind of data set: Inhibition of EGF-stimulated wild type EGFR phosphorylation in human A431 cells at 100 nM preincubated for 2 hrs followed by EGF stimulation measured after 15 mins by Western blot analysis. In kind it is cell-based. Particulars: a-431, 0.25 h, 0.1 µM.
The subject of data set [19] is NCI-H1975. The data set is described as follows: Selectivity index, ratio of IC50 for human A431 cells overexpressing wild type EGFR to IC50 for human NCI-H1975 cells harboring EGFR L858R/T790M mutant.
In data set [20] the test system is Epidermal growth factor receptor (Homo sapiens), P00533 [L858R,T790M]. Particulars: H1975, 1 uM.
The subject of data set [21] is NCI-H1975. Kind of data set: Selectivity index, ratio of IC50 for human GES1 cells to IC50 for human NCI-H1975 cells harboring EGFR L858R/T790M mutant.
For data set [22], the target named is T2, Epidermal growth factor receptor. The data set is described as follows: Inhibition of EGF-stimulated wild type EGFR phosphorylation in human A431 cells assessed as suppression of ERK phosphorylation at 100 nM preincubated for 2 hrs followed by EGF stimulation measured after 15 mins by Western blot analysis. In kind it is cell-based. The following applies: a-431, 0.25 h, 0.1 µM.

In data set [23] the test system is NCI-H1975. The data set is described as follows: Selectivity index, ratio of IC50 for human MCF10A cells to IC50 for human NCI-H1975 cells harboring EGFR L858R/T790M mutant.
For data set [24], the system named is Epidermal growth factor receptor (Homo sapiens), P00533 [T790M]. The following applies: 100 nM.

The source made the active and inactive calls. The rule behind the calls is not given here. A value given as a limit tells only on which side of the number the result lay.

A word on the IC50: it is the concentration at which inhibition is half-maximal. A lower IC50 goes with greater potency. For orientation: Kd means the concentration at which binding is half-saturated. Lower therefore signals higher affinity. The term inhibition denotes the drop in the measured response relative to a control, in per cent.

T1 sequence (P00533 25-1210 T790M/L858R limits assumed): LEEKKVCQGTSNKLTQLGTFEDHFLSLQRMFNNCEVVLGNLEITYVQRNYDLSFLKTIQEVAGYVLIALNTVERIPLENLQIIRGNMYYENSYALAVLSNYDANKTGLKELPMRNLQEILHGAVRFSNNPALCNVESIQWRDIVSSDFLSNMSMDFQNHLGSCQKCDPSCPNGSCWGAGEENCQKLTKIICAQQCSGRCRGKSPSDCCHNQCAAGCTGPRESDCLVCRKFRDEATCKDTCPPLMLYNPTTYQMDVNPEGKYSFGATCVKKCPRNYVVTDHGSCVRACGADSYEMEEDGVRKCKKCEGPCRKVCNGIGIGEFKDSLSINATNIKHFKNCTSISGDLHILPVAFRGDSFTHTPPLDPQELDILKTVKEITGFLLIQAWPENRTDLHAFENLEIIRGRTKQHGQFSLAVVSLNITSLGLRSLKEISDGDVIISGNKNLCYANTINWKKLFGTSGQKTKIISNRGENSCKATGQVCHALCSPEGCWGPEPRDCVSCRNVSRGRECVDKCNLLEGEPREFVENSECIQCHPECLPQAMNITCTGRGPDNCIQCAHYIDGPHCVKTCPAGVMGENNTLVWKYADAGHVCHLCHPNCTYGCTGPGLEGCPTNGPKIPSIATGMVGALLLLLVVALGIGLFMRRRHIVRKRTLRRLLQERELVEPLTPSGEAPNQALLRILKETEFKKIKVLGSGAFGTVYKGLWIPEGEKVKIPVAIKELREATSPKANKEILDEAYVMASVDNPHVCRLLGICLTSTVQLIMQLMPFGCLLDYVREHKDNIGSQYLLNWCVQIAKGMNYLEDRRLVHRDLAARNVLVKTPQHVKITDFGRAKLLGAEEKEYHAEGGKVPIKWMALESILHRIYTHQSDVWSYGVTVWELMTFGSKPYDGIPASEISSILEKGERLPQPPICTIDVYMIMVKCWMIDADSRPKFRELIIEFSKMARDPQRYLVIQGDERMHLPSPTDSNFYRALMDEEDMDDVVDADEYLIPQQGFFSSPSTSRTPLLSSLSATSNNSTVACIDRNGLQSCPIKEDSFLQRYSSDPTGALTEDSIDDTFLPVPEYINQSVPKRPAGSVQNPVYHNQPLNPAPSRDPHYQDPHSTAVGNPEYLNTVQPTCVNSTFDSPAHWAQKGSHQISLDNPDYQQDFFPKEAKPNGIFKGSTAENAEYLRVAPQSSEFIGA

`C=CC(=O)Nc1cccc(-n2c(=O)c(Cc3ccccc3)cc3cnc(Nc4ccc(N5CCN(C)CC5)cc4OC)nc32)c1`: the results for the IC50 in data set [1] and in [3] were 0.5 nM and 1 nM, respectively. The Ratio IC50 in the data set filed under Homo sapiens [2] is 2. Moreover, the results for the Kd in data set [4] and in [5] were 1.2 nM and 0.5 nM, respectively.

As to `C=CC(=O)Nc1cccc(-n2c(=O)cc(C)c3c(C)nc(Nc4ccc(N5CCN(C)CC5)cc4OC)nc32)c1`, the IC50 was 280 nM in [1] and above 1000 nM in data set [3].

Regarding `C=CC(=O)Nc1cccc(-n2c(=O)ccc3cnc(Nc4ccc(N5CCN(C)CC5)cc4OC)nc32)c1`, the IC50 in data set [1] came to 0.5 nM; in data set [3] it was 15 nM. The Ratio IC50 in the data set listed under Homo sapiens [2] was determined as 30. In addition, the Selectivity ratio in the data set listed under Homo sapiens [6] amounted to 32.5. Also, the Kd was 14 nM in [4] and 0.43 nM in data set [5].

With `C=CC(=O)Nc1cccc(-n2c(=O)c(C)cc3cnc(Nc4ccc(N5CCN(C)CC5)cc4OC)nc32)c1`, the IC50 in data set [1] turned out to be 1.3 nM; in data set [3], 16 nM. The results for the dissociation constant Kd in [4] and in data set [5] were 6.2 nM and 0.88 nM, respectively.

For the compound `C=CC(=O)Nc1cccc(Oc2nc(Nc3ccc(N4CCN(C)CC4)cc3OC)ncc2Cl)c1`, the inhibition entry in [7], in [8] and in [9] was “Active” throughout.

Take `C=CC(=O)Nc1cccc(-n2c(=O)cc(C3CC3)c3cnc(Nc4ccc(N5CCN(C)CC5)cc4OC)nc32)c1`: the figures for the IC50 in data set [1] and in data set [3] were 10 nM and 120 nM, respectively. The dissociation constant Kd stood at 57 nM in data set [4] and 2.2 nM in data set [5].

In the case of `C=CC(=O)Nc1cccc(-n2c(=O)c(-c3ccccc3)cc3cnc(Nc4ccc(N5CCN(C)CC5)cc4OC)nc32)c1`, the concentration for half-maximal inhibition (IC50) worked out at 0.2 nM in [1] and 7.8 nM in data set [3]. Besides, the Kd in data set [4] stood at 2.5 nM; in data set [5] it was 0.5 nM.

As for `C=CC(=O)Nc1cccc(-n2c(=O)cc(-c3ccccc3)c3cnc(Nc4ccc(N5CCN(C)CC5)cc4OC)nc32)c1`, the concentration for half-maximal inhibition (IC50) came out at 21 nM in data set [1] and 97 nM in [3].

On to `C=CC(=O)Nc1cccc(-n2c(=O)c(-c3ccccc3)c(C)c3cnc(Nc4ccc(N5CCN(C)CC5)cc4OC)nc32)c1`, for which the figures for the IC50 in data set [1] and in data set [3] were 1.6 nM and 20 nM, respectively. The Kd in data set [4] was 4.3 nM; in data set [5] it was 0.91 nM.

Consider `C=CC(=O)Nc1cccc(-n2c(=O)cc(C(C)C)c3cnc(Nc4ccc(N5CCN(C)CC5)cc4OC)nc32)c1`, for which the half-inhibitory concentration (IC50) was 94 nM in data set [1] and 98 nM in [3].

For `C=CC(=O)Nc1cccc(-n2c(=O)cc(C)c3cnc(Nc4ccc(N5CCN(C)CC5)cc4OCCC)nc32)c1`, the half-inhibitory concentration (IC50) in data set [1] is 19 nM; in data set [3], 270 nM.

For `C=CC(=O)Nc1cccc(-n2c(=O)cc(C)c3cnc(Nc4ccc(N5CCN(C)CC5)cc4OC(C)C)nc32)c1`, the half-maximal inhibitory concentration (IC50) was 78 nM in [1] and above 1000 nM in [3].

As to `C=CC(=O)Nc1cccc(-n2c(=O)cc(C)c3cnc(Nc4ccc(N5CCN(C)CC5)cc4OC)nc32)c1`, the half-inhibitory concentration (IC50) in data set [1] is 0.8 nM; in [3], 240 nM; in the data set with A-431, 870 nM; in the data set with NCI-H1975 [16], 2.8 nM. For the same compound, the Activity result in the data set on NCI-H1975 [10], in the data set with NCI-H1975 [11] and with NCI-H1975 [12] was “Non-toxic” in each case. The Ratio IC50 in the data set listed under Homo sapiens [2] was 300; in the data set on NCI-H1975 [13], above 1000; in the data set with NCI-H1975 [14], above 1000; with NCI-H1975 [19] it was 311; in the data set on NCI-H1975 [21], above 1000; with NCI-H1975 [23], above 1000. Moreover, the Selectivity ratio in the data set listed under Homo sapiens [6] worked out at 185. The results for the inhibition in [15] and in [24] were 99.5% and below 65%, respectively. Besides, the Kd in data set [4] was 48 nM; in data set [5], 0.26 nM. Moreover, the “inhibition (INH)” value in data set [17], in [18] and in data set [22] was “Active” each time. The inhibition entry in data set [20] is “Active”.

Regarding `C=CC(=O)Nc1cccc(-n2c(=O)cc(C(F)(F)F)c3cnc(Nc4ccc(N5CCN(C)CC5)cc4OC)nc32)c1`, the IC50 was 39 nM in [1] and above 1000 nM in data set [3].

Regarding `C=CC(=O)Nc1cccc(-n2c(=O)cc(C)c3cnc(Nc4ccc(N5CCN(C)CC5)cc4OCC)nc32)c1`, the values for the IC50 in [1] and in data set [3] were 11 nM and 170 nM, respectively. For the same compound, the equilibrium dissociation constant (Kd) is 350 nM in [4] and 1.2 nM in [5].

In the case of `C=CC(=O)Nc1cccc(-n2c(=O)cc(CC)c3cnc(Nc4ccc(N5CCN(C)CC5)cc4OC)nc32)c1`, the figures for the IC50 in [1] and in [3] were 6.7 nM and 114 nM, respectively. Further, the Kd came out at 140 nM in data set [4] and 1.8 nM in [5].

On to `C=CC(=O)Nc1cccc(-n2c(=O)cc(N(C)C)c3cnc(Nc4ccc(N5CCN(C)CC5)cc4OC)nc32)c1`, for which the half-inhibitory concentration (IC50) in [1] amounted to 95 nM; in [3], 210 nM.

As to `C=CC(=O)Nc1cccc(-n2c(=O)cc(-c3ccc(-c4ccccc4)cc3)c3cnc(Nc4ccc(N5CCN(C)CC5)cc4OC)nc32)c1`, the half-maximal inhibitory concentration (IC50) in [1] and in [3] was above 1000 nM each time.

`C=CC(=O)Nc1cccc(-n2c(=O)cc(CCC)c3cnc(Nc4ccc(N5CCN(C)CC5)cc4OC)nc32)c1`: the IC50 in data set [1] came to 17.8 nM; in [3], 970 nM.

For the origin of these results see ChEMBL document CHEMBL3751728, “C5-substituted pyrido[2,3-d]pyrimidin-7-ones as highly specific kinase inhibitors targeting the clinical resistance-related EGFRT790Mmutant” (Medchemcomm, 2015).
